Experimental data from patent US20260200921A1, “SUBSTITUTED AMINOPYRIDINE COMPOUNDS AS AKT INHIBITORS” (Atavistik Bio, Inc., priority 2023, published 2026).
pIC50: −log10 of the molar value.

Tests used:
AKT1 E17K = target: T1, AKT1 E17K (Homo sapiens, UniProt P31749, E17K); test: AKT1 E17K kinase assay (TR-FRET, Lance); format: biochemical; settings: full-length human recombinant AKT1 E17K activated by PDPK1; Ulight-CREBtide substrate; either 50 μM ATP or 2 mM ATP
T1 construct: Purified human recombinant kinase full-length AKT1 E17K was expressed in insect cells; made in house; host or cells: insect cells
T1 sequence (P31749 whole entry E17K): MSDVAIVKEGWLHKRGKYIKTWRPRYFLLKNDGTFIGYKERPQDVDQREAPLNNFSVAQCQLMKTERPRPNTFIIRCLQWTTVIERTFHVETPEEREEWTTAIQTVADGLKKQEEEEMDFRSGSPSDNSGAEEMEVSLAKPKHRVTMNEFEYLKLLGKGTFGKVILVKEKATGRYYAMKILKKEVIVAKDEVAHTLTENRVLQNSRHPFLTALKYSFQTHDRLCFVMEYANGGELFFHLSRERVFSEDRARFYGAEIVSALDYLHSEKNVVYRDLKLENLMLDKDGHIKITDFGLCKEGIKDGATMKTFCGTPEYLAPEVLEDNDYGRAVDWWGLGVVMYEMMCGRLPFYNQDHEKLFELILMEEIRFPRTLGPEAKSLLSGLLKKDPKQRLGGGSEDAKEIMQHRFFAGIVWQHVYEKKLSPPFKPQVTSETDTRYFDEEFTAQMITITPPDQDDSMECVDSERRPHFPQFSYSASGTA
Experimental: AKT1 E17K kinase assay: Inhibitory effects of compounds on AKT1 E17K were undertaken in a 10-pt dose response kinase activity assay measuring phospho-peptide product formation based on TR-FRET signal as described in the following paragraph.
(§1) Purified human recombinant kinase full-length AKT1 E17K was expressed in insect cells and activated in vitro by PDPK1. Ulight™-CREBtide (PerkinElmer, catalog number TRF0107) was used as the peptide substrate. The reaction buffer consisted of 50 mM HEPES pH 7.5, 10 mM MgCl2, 0.01% Triton X-100, 0.01% BSA, 2 mM DTT, 0.6 nM AKT1 E17K, 50 nM Ulight™-CREBtide and either 50 μM ATP or 2 mM ATP. The compound solution was prepared as 10 mM DMSO stock. For the assay, a 1:3 serial dilution 10-pt dose response of test compounds, in duplicate, for each concentration were dispensed into a 384-well plate (Corning, catalog number 4513). Final DMSO concentration in the assay was 1%. The enzyme mixture (5 μL, 1.2 nM) were added and the mixture was incubated for 15 min at RT prior to the start of the kinase reaction by the addition of 5 μL substrate mixture (100 nM Ulight™-CREBtide). The reaction was stopped after 60 min of incubation at RT by the addition of 10 μL of Detection Mix (PerkinElmer, #CR97-100) consisting of Europium-anti-phospho-CREB (Ser133) (Perkin Elmer, catalog numberTRF0200). Incubation with the detection mix for a further 60 min allowed binding of antibody to the phospho-Ulight™ CREBtide. The fluorescence emissions at 620 nm and 665 nm after excitation at 350 nm was measured using Envision reader. The ratio of the emissions at 665 nm and at 620 nm provided the measure for the amount of phosphorylated CREBtide product of AKT1 E17K kinase activity. To determine the IC50 values, the data was normalized (enzyme reaction without inhibitor=0% inhibition, all other assay components but no enzyme=100% inhibition) and IC50 values were calculated by a 4-parameter fit using an in-house developed protocol.

wildtype AKT1 = target: T2, wildtype AKT1 (Homo sapiens, UniProt P31749); test: AKT1 kinase assay, wildtype (TR-FRET, Lance); format: biochemical; settings: full-length human recombinant wildtype AKT1 activated by PDPK1; Ulight-CREBtide substrate; either 50 μM ATP or 2 mM ATP
T2 construct: Purified human recombinant kinase full-length wildtype AKT1 was expressed in insect cells; made in house; host or cells: insect cells
T2 sequence (P31749 whole entry): as the sequence (P31749 whole entry E17K) above, with K17E counted along it
Experimental: AKT1 kinase assay: Inhibitory effects of compounds on wildtype AKT1 were undertaken in a 10-pt dose response kinase activity assay measuring phospho-peptide product formation based on TR-FRET signal as described in the following paragraph.
as §1, with “full-length wildtype” for “full-length”, “AKT1” for “AKT1 E17K”, “nM AKT1,” for “nM AKT1 E17K,”, “Mix (PerkinElmer.” for “Mix (PerkinElmer,”

## Nc1ncccc1-c1nc2ccc(-c3ccccc3)nc2n1-c1ccc(C2CCN(C[C@H]3CC[C@H](c4nsc(=O)[nH]4)CC3)CC2)cc1 [Compound I-45, 3-((1r,4r)-4-((4-(4-(2-(2-aminopyridin-3-yl)-5-phenyl-3H-imidazo[4,5-b]pyridin-3-yl)phenyl)piperidin-1-yl)methyl)cyclohexyl)-1,2,4-thiadiazol-5(4H)-one]
AKT1 E17K
  pIC50: ≤ 6.30
Wildtype AKT1
  pIC50: > 6.30

## Nc1ncccc1-c1nc2ccc(-c3ccccc3)nc2n1-c1ccc(C2CCN(C[C@H]3CC[C@@H](c4nsc(=O)[nH]4)CC3)CC2)cc1 [Compound I-46, 3-((1s,4s)-4-((4-(4-(2-(2-aminopyridin-3-yl)-5-phenyl-3H-imidazo[4,5-b]pyridin-3-yl)phenyl)piperidin-1-yl)methyl)cyclohexyl)-1,2,4-thiadiazol-5(4H)-one]
AKT1 E17K
  pIC50: ≤ 6.30
Wildtype AKT1
  pIC50: > 6.30

## CN(Cc1ccc(-n2c(-c3cccnc3N)nc3ccc(-c4ccccc4)nc32)cc1)[C@H]1CC[C@H](c2nsc(=O)[nH]2)CC1 [Compound I-47, 3-((1r,4r)-4-((4-(2-(2-aminopyridin-3-yl)-5-phenyl-3H-imidazo[4,5-b]pyridin-3-yl)benzyl)(methyl)amino)cyclohexyl)-1,2,4-thiadiazol-5(4H)-one]
AKT1 E17K
  pIC50: ≤ 6.30
Wildtype AKT1
  pIC50: > 6.30

## CN(Cc1ccc(-n2c(-c3cccnc3N)nc3ccc(-c4ccccc4)nc32)cc1)[C@H]1CC[C@@H](c2nsc(=O)[nH]2)CC1 [Compound I-48, 3-((1s,4s)-4-((4-(2-(2-aminopyridin-3-yl)-5-phenyl-3H-imidazo[4,5-b]pyridin-3-yl)benzyl)(methyl)amino)cyclohexyl)-1,2,4-thiadiazol-5(4H)-one]
AKT1 E17K
  pIC50: 6.70 to 7.30
Wildtype AKT1
  pIC50: > 6.30
